Drawing on PubChem BioAssay (NCI), this text covers TGI and GI50 for 23 molecules.

Several values for one entry are separate records, joined by “and”; a condition that tells them apart may be missing. Identical values can stand only once.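 Five concentrations, 48 hours, 96-well plates. GI50: concentration for 50% inhibition of growth. TGI marks complete inhibition of growth.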

What all share (assay): NCI tumour cell line growth inhibition, 48 h
In assay [1] the test system is HCT-15 colon.
The subject of assay [2] is HL-60(TB) leukemia.
Assay [3] relates to HS 578T breast.
In assay [4] the test system is IGROV1 ovarian.
Assay [5] deals with M14 melanoma.
Assay [6] concerns MOLT-4 leukemia.
In assay [7] the test system is NCI-H226 lung.
Assay [8] concerns NCI/ADR-RES ovarian.
The test system of assay [9] is OVCAR-5 ovarian.
The subject of assay [10] is SK-OV-3 ovarian.
For assay [11], the system named is SN12C renal.

Consider `CC(C)N(CC(=O)O)CC(=O)O`, for which the TGI in [1], in assay [2], in assay [3], in [4], in assay [5] and in [6] was more than 100 µM throughout. Further, the TGI in assay [7], in assay [8], in assay [9], in assay [10] and in [11] was more than 100 µM in each case.
Turning to `CCCCCCCCCCCCCCCCCCN(C)CC(COC)OP(=O)([O-])OCC[N+](C)(C)C` (stereo not drawn), the TGI worked out at 13.6 µM in assay [1]; 8.53 µM in assay [2]; 17.8 µM in assay [3]; 1.52 µM in assay [4]; 15 µM in [5]; 11 µM in assay [6]. Moreover, the TGI in assay [7] is 13.5 µM; in assay [8], 33.3 µM; in assay [9], 5.95 µM; in assay [10], 25.1 µM; in assay [11], 14.6 µM.
Take `CC1CC(C)(O)C2C3(C)CCCC2(COC3=O)C12CCC1(CCOC1=O)O2` (stereo not drawn): the TGI in assay [1], in assay [2], in assay [4], in [6], in assay [7] and in assay [8] was more than 250 µM throughout. Further, the TGI in [9], in assay [10] and in [11] was more than 250 µM throughout.
`O=C1c2cc3c(cc2[C@@H]2C(O)[C@H]4O[C@H]4C4CCN1C42)OCO3` (stereo partly drawn): the TGI in assay [1], in [2], in [4], in [5], in [6] and in [7] was more than 37.5 µM each time. Further, the TGI in [9], in [10] and in assay [11] was more than 37.5 µM throughout.
Regarding `Cc1csc2nc(-c3cc([N+](=O)[O-])c(Cl)cc3Cl)c(/C=N/N=C(N)N)n12`, the TGI was determined as 45.2 µM in assay [1]; 28.9 µM in assay [2]; 32.7 µM in assay [3]; 30 µM in [4]; 34.3 µM in assay [5]; 18.8 µM in [6]. Further, the TGI amounted to 34.6 µM in assay [7], 32 µM in [8], 49.4 µM in assay [9] and 29.8 µM in [11].
Consider `Nc1[nH]c(=O)nc2c1cnn2COCCO`, for which the TGI in assay [1] is more than 100 µM; in assay [2], more than 100 µM; in assay [4], more than 100 µM; in assay [5], more than 100 µM; in assay [6] it was more than 100 µM; in assay [7] it was 6.36 µM. The results for the TGI in assay [9] and in [11] were 73.6 µM and more than 100 µM, respectively.
For the molecule `CN(C)CCC(=O)[C@@]1(O)CC[C@H]2[C@@H]3CC=C4C[C@@H](O)CC[C@]4(C)[C@H]3CC[C@@]21C`, the TGI in assay [1] came to 45.1 µM; in [2] it was 37.7 µM; in assay [3] it was 51.1 µM; in assay [4], 34.3 µM; in assay [5], 34.2 µM; in [6] it was 53.1 µM. For the same molecule, the TGI is more than 100 µM in [7]; 72.1 µM in [8]; more than 100 µM in [9]; more than 66.8 µM in assay [10]; 32.2 µM in [11].
`c1ccc(-c2cc3nc4ccccc4nc3cc(-c3ccccc3)[nH][nH]2)cc1`: the TGI was more than 100 µM in [1]; 53.5 µM in assay [2]; more than 100 µM in assay [3]; more than 100 µM in assay [4]; more than 100 µM in assay [5]; more than 100 µM in assay [6]. The TGI in assay [7] was more than 100 µM; in assay [8], more than 100 µM; in [9], more than 100 µM; in [10], 39.5 µM; in assay [11], more than 100 µM.
Consider `CC(C)CC(N)C(=O)NC(CNC(CCC(N)=O)C(=O)NC(CC(C)C)C(=O)NC(CC(C)C)C(=O)O)Cc1ccc2ccccc2c1` (stereo not drawn), for which the TGI in assay [1], in assay [2], in assay [3], in assay [4], in assay [5] and in assay [6] was more than 10 µM throughout. For the same molecule, the TGI in [7], in assay [8], in assay [9], in assay [10] and in assay [11] was more than 10 µM in each case.
For `CCn1c2ccccc2c2ccc(C3C4C(=O)N(c5cccc6ccccc56)C(=O)C4ON3C(C(N)=O)c3ccccc3)cc21` (stereo not drawn), the TGI in assay [1], in assay [2], in assay [3], in [4], in assay [5] and in assay [6] was more than 25 µM in each case. In addition, the TGI in assay [7] was 8.05 µM; in assay [8] it was more than 25 µM; in assay [9] it was more than 25 µM; in assay [10], more than 25 µM; in [11] it was more than 25 µM.
In the case of `C[C@@]12CC[C@@H](O)C[C@@H]1CC[C@H]1[C@H]2CC[C@@]2(C)[C@H](c3ccc(=O)oc3)CC[C@@]12O`, the GI50 was less than 10 nM in assay [1]; less than 10 nM in assay [3]; less than 10 nM in assay [4]; less than 10 nM in assay [5]; less than 18.3 nM in assay [7]; less than 10 nM in assay [8]. Moreover, the values for the GI50 in [9], in [10] and in [11] were 13.2 nM, less than 11.8 nM and less than 10 nM, respectively. Further, the TGI in assay [1] was determined as 0.0292 µM; in assay [3] it was 0.0351 µM; in assay [4], 0.171 µM; in [5], 0.0564 µM; in [7], 0.0723 µM; in assay [8], 0.0285 µM. Also, the TGI in assay [9] is 0.0426 µM; in assay [10] it was 0.0451 µM; in [11], 0.0272 µM.
For `Cc1ccc(C(=O)NC2C(=O)NC(C(C)C)C(=O)N3CCCC3C(=O)N(C)CC(=O)N(C)C(C(C)C)C(=O)OC2C)c2c1Oc1c(c(C(=O)NC3C(=O)NC(C(C)C)C(=O)N4CCCC4C(=O)N(C)CC(=O)N(C)C(C(C)C)C(=O)OC3C)c3nc(-c4ccccc4)c(=O)oc3c1C)N2` (stereo not drawn), the figures for the GI50 in assay [1] and in [8] were 15.9 nM and 85.6 nM, respectively. For the same molecule, the TGI in assay [1] was 0.646 µM and 0.318 µM; in assay [2] it was 0.557 µM; in [3], 0.00548 µM; in assay [4], 13.3 µM; in assay [6], 0.0314 µM; in assay [7], 0.00507 µM. Moreover, the TGI in [8] was 2.59 µM and 2.37 µM; in assay [9], 0.00918 µM; in assay [10] it was 16.1 µM; in assay [11], 0.0442 µM and 0.312 µM.
As for `CCCCCCC(=O)OC[n+]1ccc(-c2c(COC(=O)NC(C)C)c(COC(=O)NC(C)C)c3n2CCC3)cc1`, the TGI was more than 100 µM in assay [1]; more than 71.4 µM in assay [2]; more than 100 µM in [3]; more than 100 µM in [4]; more than 100 µM in [5]; more than 94.3 µM in assay [6]. Besides, the TGI in [7], in assay [8], in assay [9], in assay [10] and in [11] was more than 100 µM each time.
On to `[O-]c1c2c(nn1-c1ccc(F)cc1)c1ccccc1c[n+]2Cc1ccccc1`, for which the TGI in [1] is 39.1 µM; in assay [2], 11.1 µM; in assay [4], 30.6 µM; in [5] it was 15.3 µM; in assay [6], 81.5 µM; in assay [7], 47.4 µM. Also, the values for the TGI in [9], in assay [10] and in [11] were 41.3 µM, 41.8 µM and 52.5 µM, respectively.
For the molecule `C/C=C\C1OC1(C)c1cc(=O)c2c(C)cc3c(c2o1)C(=O)c1c(O)c(C2CC(C)(N(C)C)C(OC(C)=O)C(C)O2)cc(C2CC(N(C)C)C(O)C(C)O2)c1C3=O` (stereo not drawn), the TGI in assay [1] is 0.0291 µM; in [3] it was 0.0223 µM; in assay [4] it was 0.183 µM; in assay [5], 0.00653 µM; in assay [6], 0.049 µM; in [7], 0.018 µM. For the same molecule, the TGI in assay [9] came out at 0.488 µM; in assay [10], 0.0498 µM; in assay [11], 0.0134 µM.
Turning to `Nc1c(S(=O)(=O)O)cc(S(=O)(=O)O)c2ccc(N=Nc3ccccc3)c(O)c12`, the TGI in [1], in [2], in [3], in assay [4], in assay [5] and in assay [7] was more than 100 µM throughout. The TGI in assay [8], in [9], in [10] and in assay [11] was more than 100 µM each time.
Take `CCOC(=O)c1sc2nc(SC)nc3c2c1NC(=O)CN3c1ccc(F)cc1`: the TGI in assay [2] is more than 100 µM; in assay [3], 53.3 µM; in assay [4], more than 100 µM; in [5], more than 100 µM; in [6] it was more than 100 µM; in assay [7], 91.5 µM. Also, the TGI was more than 100 µM in assay [9], 57.7 µM in [10] and 69.1 µM in assay [11].
For `CCOC(=O)C(C(=O)OCC)c1cc(-c2cc3ccccc3o2)oc(=O)c1C#N`, the TGI in assay [1] turned out to be 35.7 µM; in assay [2], 64.8 µM; in assay [4] it was 80 µM; in assay [5] it was 36.9 µM; in [6], 87.2 µM; in assay [7] it was 41.9 µM. The TGI came to 33.1 µM in assay [9] and 62.9 µM in assay [11].
For `COc1cc2cc(C(=O)N3CC(CCl)c4ccc(NO)cc43)[nH]c2c(OC)c1OC` (stereo not drawn), the TGI in [1] was more than 100 µM; in [2], 0.403 µM; in [3] it was 0.954 µM; in assay [4] it was 10.3 µM; in [5], 0.768 µM; in assay [6] it was 0.61 µM. Further, the TGI in [8] is 0.48 µM; in assay [9], more than 37.2 µM; in assay [10], 3.01 µM; in assay [11], 11.8 µM.
As for `O=P1(Oc2ccc(Cl)cc2Cl)Oc2cc3ccccc3cc2O1`, the TGI is more than 100 µM in assay [1]; 50.8 µM in [2]; more than 100 µM in [4]; more than 71.4 µM in assay [6]; more than 100 µM in [7]; more than 100 µM in [8]. The TGI in [9], in assay [10] and in [11] was more than 100 µM in each case.
In the case of `CC(=O)NC1C(OCc2ccccc2)OC(CO)C(O)C1OCC(=O)NC(C(=O)NC(CCC(=O)NCCCCCC(=O)Nc1ccc2c(c1)CN1C(=O)c3ccccc3C1=N2)C(N)=O)C(C)C` (stereo not drawn), the TGI in assay [1] was more than 100 µM; in assay [2], more than 100 µM; in assay [3], 51 µM; in [4], 50.4 µM; in assay [5] it was more than 100 µM; in assay [6], more than 100 µM. Moreover, the TGI in [8] was more than 100 µM; in assay [9], more than 100 µM; in [10] it was 44.6 µM; in assay [11] it was more than 100 µM.
Consider `O=C(O)C1=C(CO)Oc2cc3c(cc2C1c1ccc2c(c1)OCO2)OCO3` (stereo not drawn), for which the TGI in assay [1], in [2], in [4], in assay [5], in assay [6] and in [10] was more than 100 µM each time. Also, the TGI in assay [11] is more than 100 µM.
For the molecule `COc1ccc2c(O)c1-c1c(OC)ccc(c1O)SSc1ccc(OC)c(c1O)-c1c(OC)ccc(c1O)SS2`, the TGI in [2], in [3], in assay [4], in [5], in assay [6] and in [7] was more than 100 µM throughout. The TGI in assay [9], in [10] and in assay [11] was more than 100 µM each time.
